Eleven molecules from ChEMBL document CHEMBL1201862, “PubChem BioAssay data set” (2004) can be followed below.

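Step 1: Grow cells in 96-well plates. Step 2: Expose to compound for 48 hours at 5 concentrations. Step 3: Interpolate endpoints linearly; if unreached, use highest concentration. GI50 = concentration required for 50% inhibition of growth.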 Activity calls are given as the source filed them. No stated cut-off is given here; in the data, active = GI50 up to about 1.1 µM and inactive = higher. Bounds are passed on as bounds.

Test systems include DMS-114; MOLT-4; UACC-62; HCT-116; SK-OV-3; DMS-273; OVCAR-3; SN12C; SK-MEL-5; RXF 393; DLD-1; SNB-75; SK-MEL-28; Malme-3M; HOP-62; KM-20L2; OVCAR-4; HCC 2998; SR.
Assay in all cases: inhibition of tumour cell growth, NCI panel, 48 h

For the molecule `COC1C(O)C(n2ncc3c(SC)nc(SC)nc32)OC1C(O)CO` (configuration not stated), the GI50 in the assay with DMS-114, with MOLT-4, with UACC-62, with HCT-116, in the assay with SK-OV-3 and in the assay with DMS-273 was > 100 µM (inactive) each time. For the same molecule, the GI50 in the assay on OVCAR-3, in the assay on SN12C, in the assay on SK-MEL-5, with RXF 393, with DLD-1 and in the assay on SNB-75 was > 100 µM (inactive) in each case. For the same molecule, the GI50 in the assay with SK-MEL-28, in the assay with Malme-3M, in the assay on HOP-62, with KM-20L2, in the assay with OVCAR-4 and in the assay with HCC 2998 was > 100 µM (inactive) in each case.
As to `O=C1NC(=O)C(CCO)(c2ccccc2)C(=O)N1`, the GI50 in the assay on DMS-114, in the assay on MOLT-4, with UACC-62, with HCT-116, in the assay on SK-OV-3 and in the assay with DMS-273 was > 100 µM (inactive) in each case. The GI50 with OVCAR-3, in the assay with SN12C, in the assay with SK-MEL-5, in the assay with RXF 393, with DLD-1 and with SNB-75 was > 100 µM (inactive) throughout. Also, the GI50 in the assay on SK-MEL-28, in the assay on Malme-3M, with HOP-62, in the assay on KM-20L2, in the assay with OVCAR-4 and in the assay with HCC 2998 was > 100 µM (inactive) throughout.
On to `Nc1ccccc1S(=O)(=O)c1ccccc1`, for which the GI50 in the assay on DMS-114, with MOLT-4, in the assay with UACC-62, in the assay on HCT-116, in the assay with SK-OV-3 and in the assay on DMS-273 was > 100 µM (inactive) each time. Moreover, the GI50 in the assay with OVCAR-3 was > 100 µM (inactive); with SN12C, > 100 µM (inactive); in the assay on SK-MEL-5 it was > 100 µM (inactive); in the assay on RXF 393 it was > 100 µM (inactive); in the assay on DLD-1, > 100 µM (inactive); with SNB-75 it was 41.1 µM (inactive). For the same molecule, the GI50 in the assay with SK-MEL-28, with Malme-3M, in the assay with HOP-62, with SR, in the assay with KM-20L2 and in the assay on OVCAR-4 was > 100 µM (inactive) throughout. The GI50 with HCC 2998 is > 100 µM (inactive).
For `COc1ccc2[nH]c3c(C)c4ccncc4c(C)c3c2c1`, the GI50 with DMS-114 is 0.446 µM (active); in the assay on MOLT-4, 0.0635 µM (active); in the assay with UACC-62, 0.731 µM (active); in the assay with HCT-116 it was 0.0425 µM (active); in the assay with SK-OV-3 it was 0.75 µM (active); in the assay on DMS-273, 0.218 µM (active). The GI50 in the assay on OVCAR-3 was 0.402 µM (active); with SN12C it was 0.177 µM (active); with SK-MEL-5, 1.26 µM (inactive); in the assay on RXF 393, 0.1 µM (active); with DLD-1, 0.123 µM (active); with SNB-75 it was 1.17 µM (inactive). Also, the GI50 in the assay with SK-MEL-28 is 2.09 µM (inactive); in the assay with Malme-3M it was 1.44 µM (inactive); in the assay with HOP-62 it was 0.946 µM (active); with KM-20L2 it was 0.169 µM (active); in the assay on OVCAR-4, 0.258 µM (active); in the assay on HCC 2998, 1.92 µM (inactive).
`CCOC(=O)c1c[nH]c2cc3c(cc2c1=O)CCS3(=O)=O.CCOC(=O)c1c[nH]c2ccc3c(c2c1=O)S(=O)(=O)CC3`: the GI50 in the assay with DMS-114, with MOLT-4, with UACC-62, with HCT-116, in the assay with SK-OV-3 and with DMS-273 was > 100 µM (inactive) throughout. In addition, the GI50 with OVCAR-3, in the assay with SN12C, in the assay with SK-MEL-5, in the assay on RXF 393, in the assay with DLD-1 and in the assay on SNB-75 was > 100 µM (inactive) throughout. Moreover, the GI50 in the assay on SK-MEL-28, with Malme-3M, in the assay with HOP-62, in the assay with KM-20L2, in the assay with OVCAR-4 and with HCC 2998 was > 100 µM (inactive) each time.
For `Cc1ccc(C#CS(=O)(=O)C(F)(F)F)cc1`, the GI50 with DMS-114, in the assay on MOLT-4, in the assay on UACC-62, in the assay with HCT-116, in the assay with SK-OV-3 and in the assay on DMS-273 was > 100 µM (inactive) in each case. In addition, the GI50 in the assay with OVCAR-3, with SN12C, with SK-MEL-5, with RXF 393, with DLD-1 and in the assay with SNB-75 was > 100 µM (inactive) in each case. Moreover, the GI50 with SK-MEL-28, with Malme-3M, in the assay with HOP-62, in the assay with KM-20L2, with OVCAR-4 and in the assay with HCC 2998 was > 100 µM (inactive) in each case.
For the molecule `CC(=O)SCCC1c2[nH]c3ccccc3c2CCN1O` (configuration not stated), the GI50 with DMS-114 is 74.5 µM (inactive); in the assay with MOLT-4, 40.6 µM (inactive); in the assay on UACC-62, > 100 µM (inactive); in the assay with SK-OV-3 it was > 100 µM (inactive); in the assay on DMS-273 it was 86.1 µM (inactive); in the assay with OVCAR-3 it was > 100 µM (inactive). Also, the GI50 in the assay on SN12C is > 100 µM (inactive); in the assay with SK-MEL-5, 83 µM (inactive); in the assay with RXF 393, 78 µM (inactive); with DLD-1, > 100 µM (inactive); in the assay on SNB-75, 18.7 µM (inactive); in the assay on SK-MEL-28, > 100 µM (inactive). For the same molecule, the GI50 is > 100 µM (inactive) in the assay with Malme-3M; > 100 µM (inactive) in the assay with HOP-62; > 100 µM (inactive) in the assay on KM-20L2; > 100 µM (inactive) with OVCAR-4; 85.1 µM (inactive) in the assay with HCC 2998.
Consider `Nc1ccccc1Sc1ccc(Cl)cc1`, for which the GI50 with DMS-114 was 21.2 µM (inactive); in the assay on MOLT-4, > 10 µM (inactive); with UACC-62, 30.3 µM (inactive); in the assay on HCT-116, 34.3 µM (inactive); with SK-OV-3 it was 40.4 µM (inactive); with DMS-273, 26.1 µM (inactive). The GI50 was 25.6 µM (inactive) in the assay with OVCAR-3; 23.2 µM (inactive) in the assay with SN12C; 17.8 µM (inactive) in the assay on SK-MEL-5; 13.5 µM (inactive) with RXF 393; 34.6 µM (inactive) with DLD-1; 18.1 µM (inactive) in the assay on SNB-75. For the same molecule, the GI50 with SK-MEL-28 was 28.9 µM (inactive); in the assay with Malme-3M it was 26.1 µM (inactive); in the assay on HOP-62 it was 31.4 µM (inactive); with SR it was 21.2 µM (inactive); in the assay on KM-20L2, 20.9 µM (inactive); with OVCAR-4, 30.8 µM (inactive). Further, the GI50 in the assay with HCC 2998 is 28.1 µM (inactive).
Regarding `C=CCC12CC(=O)C=C1CCC1(C2)OCCO1` (configuration not stated), the GI50 in the assay with MOLT-4, in the assay on UACC-62, in the assay on HCT-116, in the assay with SK-OV-3, with DMS-273 and with OVCAR-3 was > 100 µM (inactive) each time. Besides, the GI50 with SN12C, in the assay on SK-MEL-5, with RXF 393, in the assay on DLD-1, in the assay on SNB-75 and with SK-MEL-28 was > 100 µM (inactive) in each case. In addition, the GI50 in the assay with Malme-3M, in the assay with HOP-62, in the assay on SR, in the assay with KM-20L2, in the assay on OVCAR-4 and with HCC 2998 was > 100 µM (inactive) each time.
As for `O=C(O)c1ccc(Nc2c3ccccc3nc3ccccc23)cc1`, the GI50 in the assay with DMS-114 was > 100 µM (inactive); in the assay with MOLT-4 it was 23.1 µM (inactive); in the assay on UACC-62 it was 47.4 µM (inactive); in the assay on HCT-116, 45 µM (inactive); with SK-OV-3 it was > 100 µM (inactive); with DMS-273, 38.9 µM (inactive). Besides, the GI50 in the assay on OVCAR-3 is > 100 µM (inactive); in the assay on SN12C it was 64.7 µM (inactive); with SK-MEL-5, > 68.1 µM (inactive); in the assay with RXF 393 it was > 100 µM (inactive); with SNB-75, > 83.9 µM (inactive); in the assay on SK-MEL-28, > 100 µM (inactive). Also, the GI50 with Malme-3M was 43.3 µM (inactive); in the assay with HOP-62, > 67.3 µM (inactive); with KM-20L2, > 100 µM (inactive); in the assay with OVCAR-4 it was > 100 µM (inactive); in the assay with HCC 2998 it was > 100 µM (inactive).
With `CN1CC[C@]2(C)c3c(O)cccc3CC3CCCC1C32C` (some centres not stated), the GI50 in the assay on DMS-114, in the assay on MOLT-4, in the assay on UACC-62, with HCT-116, in the assay with SK-OV-3 and with OVCAR-3 was > 100 µM (inactive) each time. For the same molecule, the GI50 in the assay on SN12C is > 100 µM (inactive); in the assay with SK-MEL-5 it was > 100 µM (inactive); in the assay with RXF 393, > 100 µM (inactive); in the assay on DLD-1, > 100 µM (inactive); with SNB-75, 45.4 µM (inactive); in the assay with SK-MEL-28, > 100 µM (inactive). Also, the GI50 in the assay with Malme-3M was > 100 µM (inactive); in the assay with HOP-62 it was > 100 µM (inactive); in the assay with SR, > 100 µM (inactive); in the assay on KM-20L2, > 100 µM (inactive); in the assay on HCC 2998 it was 15.8 µM (inactive).
